One test addresses T1, lamprey MCa receptor (Lampetra fluviatilis, UniProt A6XB56).
T1 sequence (A6XB56 1-341): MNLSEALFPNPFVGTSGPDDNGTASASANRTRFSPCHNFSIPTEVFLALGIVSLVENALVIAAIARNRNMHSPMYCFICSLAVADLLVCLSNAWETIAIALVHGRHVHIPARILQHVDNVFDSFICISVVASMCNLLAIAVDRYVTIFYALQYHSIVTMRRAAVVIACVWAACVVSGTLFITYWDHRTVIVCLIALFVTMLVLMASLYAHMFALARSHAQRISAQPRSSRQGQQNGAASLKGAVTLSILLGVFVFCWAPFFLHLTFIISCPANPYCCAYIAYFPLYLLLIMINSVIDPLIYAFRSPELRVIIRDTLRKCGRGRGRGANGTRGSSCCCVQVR
Kind of test: Radioligand binding assay (saturation and competition, [125I] NDP-MSH), lamprey MCa. Also noted: species or system river lamprey. The conditions noted are these: read-out: Kd (mean ± SEM) from saturation curves, lamprey MCa; HEK-293 EBNA membranes, pH 7.4, 2 h, room temperature; non-specific binding with unlabelled NDP-MSH; mean ± SEM, duplicate, at least three independent experiments. On the procedure: HEK-293 (human embryonic kidney) cells with Epstein-Barr nuclear antigen (EBNA) grown to 50–70% confluence were transfected with 10 μg of the construct using FuGENE-6 Transfection Reagent (Roche, Sweden) according to the manufacturers' instruction. The cells were grown in Dulbeccos Modified Eagle Media and F-12 Nutrient Mixture (D-MEM/F-12) (1:1) with GlutaMAX I containing 10% foetal bovine serum, 100 u/ml penicillin, 100 μg/ml streptomycin, 2.5 ug/ml amphotericin B, and 250 μg/ml geneticin G-418 (Invitrogen); in humidified atmosphere of 95% air and 5% CO2 at 37°C. Semi-stable cell lines, expressing target receptor, were obtained by selecting for growth in the presence of 100 μg/ml hygromycin B (Invitrogen), first added 24 hours after transfection.
HEK-293 EBNA cells expressing MC receptors were harvested from plate and resuspended in binding buffer composed of 25 mM HEPES, 2.5 mM CaCl2, 1 mM MgCl2 and 0.2% bacitracin, pH adjusted to 7.4. To obtain the membranes, cells were mechanically homogenized with Ultra Turrax. Cell suspensions were centrifuged for 3 min at 190 g and membranes were collected from the supernatant by centrifugation for 15 min at 20000 g. The pellet was resuspended in binding buffer. The binding was performed in a final volume of 100 μl for 2 h at room temperature. Saturation experiments were carried out with serial dilutions of [^125I] […] Competition experiments were performed with constant 0.6 nM concentration of [^125I] […] The membranes were collected by filtration on Glass Fibre filters, Filtermat A (Perkin Elmer, USA), using a TOMTEC Mach III cell harvester (Orange, CT, USA). The filters were washed with 5 ml per well of 50 mM Tris HCl (pH 7.4) and dried at 50°C. MeltiLex A scintillator sheets (Perkin Elmer, USA) were melted on dried filters and radioactivity was counted with an automatic Microbeta counter 1450 (Perkin Elmer). Binding assays were performed in duplicate with at least three independent experiments. […] The results were analysed with Prism 3.0 software package (GraphPad, USA). Binding affinities were compared with one-way ANOVA Tukey's post-hoc tests.

Test [1] concerns Non-transfected cells (HEK-293 EBNA). Kind of test: Radioligand binding, non-transfected cells. Also noted: species or system human. The conditions noted are these: [125I] NDP-MSH. On the procedure:
HEK-293 EBNA cells expressing MC receptors were harvested from plate and resuspended in binding buffer composed of 25 mM HEPES, 2.5 mM CaCl2, 1 mM MgCl2 and 0.2% bacitracin, pH adjusted to 7.4. To obtain the membranes, cells were mechanically homogenized with Ultra Turrax. Cell suspensions were centrifuged for 3 min at 190 g and membranes were collected from the supernatant by centrifugation for 15 min at 20000 g. The pellet was resuspended in binding buffer. The binding was performed in a final volume of 100 μl for 2 h at room temperature. Saturation experiments were carried out with serial dilutions of [^125I] NDP-MSH { [Nle^4, D-Phe^7]α-MSH}, labelled by the Chloramine-T method. Non-specific binding was determined in the presence of 1 μM unlabeled NDP-MSH. Competition experiments were performed with constant 0.6 nM concentration of [^125I] NDP-MSH and serial dilutions of competing unlabelled human ligands: NDP-MSH, α-MSH, β-MSH, γ1-MSH, ACTH (1–17) ACTH (1–24) ACTH (1–39), MTII, HS024) (Neosystem, France) and lamprey ligands: MSH-A, MSH-B, ACTH(1–31). […] MeltiLex A scintillator sheets (Perkin Elmer, USA) were melted on dried filters and radioactivity was counted with an automatic Microbeta counter 1450 (Perkin Elmer). […] The results were analysed with Prism 3.0 software package (GraphPad, USA). […]

In another test the target is human MC1. The note with it: saturation, [125I] NDP-MSH; mean ± SEM; ref [38]; cited from earlier work.
Another test has as its target human MC3. The conditions noted are these: saturation, [125I] NDP-MSH; mean ± SEM; ref [42]; cited from earlier work.
The next test concerns the target human MC4. The conditions noted are these: saturation, [125I] NDP-MSH; mean ± SEM; ref [42]; cited from earlier work.
The target of a further test is human MC5. The conditions noted are these: saturation, [125I] NDP-MSH; mean ± SEM; ref [39]; cited from earlier work.

For the compound `CCCC[C@H](NC(=O)[C@H](CO)NC(=O)[C@H](Cc1ccc(O)c(I)c1)NC(=O)[C@H](CO)NC(C)=O)C(=O)N[C@@H](CCC(=O)O)C(=O)N[C@@H](Cc1c[nH]cn1)C(=O)N[C@H](Cc1ccccc1)C(=O)N[C@@H](CCCNC(=N)N)C(=O)N[C@@H](Cc1c[nH]c2ccccc12)C(=O)NCC(=O)N[C@@H](CCCCN)C(=O)N1CCC[C@H]1C(=O)N[C@H](C(N)=O)C(C)C` [[^125I] NDP-MSH, [Nle^4, D-Phe^7]α-MSH], the Kd was 2.46 ± 0.68 nM on lamprey MCa receptor; 0.109 ± 0.062 nM on human MC1; 0.412 ± 0.121 nM at human MC3; 1.78 ± 0.36 nM on human MC4; 5.05 ± 1 nM at human MC5. Moreover, the “specific binding, non-transfected cells” value in test [1] was “did not show any specific binding”.

(Values after paper PMC1925065, “Functional characterization of two melanocortin (MC) receptors in lamprey showing orthology to the MC1 and MC4 receptor subtypes” (BMC Evolutionary Biology, 2007).)
